Data taken from US8815935B2, “Inhibitors of protein prenyltransferases” (The Regents of the University of California, priority 2008, dated 2014).
Read-outs that look alike come from different tables or passages of the source. One block for each compound: values may come before it.

Experiments:
[1] = target: T1, GGTase-I (Rattus norvegicus, UniProt P53610+Q04631); test: In vitro GGTase-I enzyme assay (IC50, kinetics); type: biochemical
T1 construct: purchased JENA BIOSCIENCE
Protocol: The GGTase-I assay was carried out using RhoA as a substrate protein, GGTase-I (JENA Bioscience) and [3H]geranylgeranyl pyrophosphate. Incubation was for 30 min at 37° C. GGTase-II (or RabGGTase) assay was carried out using YPTI as a substrate protein, GGTase-II (Calbiochem, San Diego, Calif.) plus REP1 (Calbiochem) and [3H]geranylgeranyl pyrophosphate. Incubation was for 30 min at 37° C. FIGS. 20D-20F show the three dimensional structure of GGTase I (D), FTsse (E) and GGTase II (F) which can be obtained from X-ray diffraction studies of protein crystals.
(§1) GGTase-I and FTase activities were determined by following the incorporation of radiolabeled isoprenoid [^3H]-geranylgeranyl or [^3H]-farnesyl into substrate proteins. FTase or GGTase-I (50 nM) were used to initiate reactions containing 0.4 μM of [^3H]-FPP or 0.5 μM of [^3H]-GGPP and 2 μM of MBP-tagged substrates (K-Ras4B for FTase; RhoA for GGTase-I) in 20 μl of buffer {50 mM Tris-HCl (pH 7.5), 10 mM MgCl2, […] and 5 mM DTT}. Inhibitors were added at the indicated concentrations. The final DMSO concentration was 2.5% for all samples.
(§2) Reactions were carried out for 10 min at 30° C. The reaction mixture was spotted onto a filter paper, treated with 10% trichloroacetic acid (TCA) followed by ethanol and acetone washing. The filter was counted using a scintillation counter. Kinetic assays in which the GGPP concentration was varied employed fixed concentrations of GGTase-I and RhoA, and reactions were carried out for 5 min. Similarly, fixed concentrations of GGTase-I and GGPP were used when the amount of RhoA was varied.

[2] = target: T2, FTase (Rattus norvegicus, UniProt Q02293+Q04631); test: In vitro FTase assay (K-Ras4B substrate, [3H]FPP); type: biochemical; details: for inhibition of FTase: at concentrations at which GGTase-I was inhibited by more than 90%
T2 construct: purchased JENA BIOSCIENCE
Excerpt: To further characterize the pilot library, inhibitors of protein farnesyltransferase were identified. This was accomplished by using K-Ras4B as a substrate protein, tritiated farnesylpyrophosphate ([^3H]FPP) and protein farnesyltransferase. See Finegold, A. A., Johnson, D. I., Farnsworth, C. C., Gelb, M. H., Judd, S. R., Glomset, J. A. and Tamanoi, F. (1991) Protein geranylgeranyltransferase of Saccharomyces cerevisiae is specific for Cys-Xaa-Xaa-Leu motif and requires the CDC43 gene product but not the DPR1 gene product. Proc. Natl. Acad. Sci. USA 88, 4448-4452. […] On the other hand, the structure of the compounds P1-F11, P2-B7 and P2-E9 resemble those of GGTIs. The FTI P1-F11 resembles the GGTI P1-F10, while the FTI P2-B7 resembles the GGTI P2-C10. The FTI P2-E9 is similar to the GGTI P2-G3. Similarity of some GGTI and FTI compounds may point to common structural features between the two closely related enzymes. As described before, FTase and GGTase I have similar three-dimensional structures and a shared alpha subunit. On the other hand, FTase specific inhibitors may recognize a region(s) that is different between the two enzymes.
Examples 2-8 illustrate assays of bioactivity. These methods are applicable to the compounds of the present invention having the particular linkers and scaffolds described herein, to determine their activity. […] Varying concentrations of the two compounds were added to each enzyme reaction. The FTase (protein farnesyltransferase) assay was carried out using K-Ras4B as a substrate protein, FTase (JENA Bioscience, San Diego, Calif.) and [3H]farnesyl pyrophosphate. Incubation was for 30 min at 37° C.
as §1, §2

[3] = tested on: geranylgeranylated Rheb (Rheb-CSVL) in HEK 293 cells; test: Rheb-CSVL mobility shift in HEK 293 cells; type: cell-based, human; details: 48 hours
Excerpt: Finally, we investigated in vivo effects of compounds 22 (also known as UC-22) and 23 (also known as UC-23). Human embryonic kidney (HEK) 293 cells were transfected with the Rheb-CSVL construct that expresses the geranylgeranylated form of the Rheb protein. Inhibition of the geranylgeranylation of this protein can be detected from a shift in its mobility on SDS polyacrylamide gel; the unprocessed form appears as a slowly migrating band.
Human embryonic kidney (HEK) 293 cells expressing Myc-HA tagged-Rheb-CVSL (upper) or Myc-HA tagged-Rheb-WT (lower) were treated with P3-E5 for 48 hours and then lysed. The cell lysates were run on a SDS polyacrylamide gel and immunoblotted using anti-Myc or anti-Actin antibody. The descriptors P and U indicate processed and unprocessed Rheb, respectively.
Human embryonic kidney (HEK) 293 cells expressing Myc-HA tagged-Rheb-CVSL (upper) or Myc-HA tagged-Rheb-WT (lower) were treated with mP5-H6a (also referred to as mP5-H6), or GGTI-298 for 48 hours and then lysed. Lysates were run on a SDS polyacrylamide gel and immunoblotted with anti-Myc or anti-Actin antibody.

[4] = tested on: Jurkat cells; test: Jurkat cell growth inhibition; type: cell-based, human
Protocol: In Table 4 in cell GI50 values for the growth inhibition of Jurkat cells are reported. The GI50 value is the concentration of a test compound needed to produce 50% growth inhibition in the cell type listed. In Table 4 the isolated yield of each synthetic step for the synthesis of corresponding compounds are also reported.
(§3) Panc-1 cells (Pancreatic cancer cell line) and Jurkat cells (T-cell leukemia) were treated with 12.5 μM of P5-H6 or 12.5 μM of mP5-H6a for 72 hours. The cell number was counted as described in Example 5.
(§4) Cell viability was determined by Cell Counting Kit-8 (CCK-8, Dojindo, Kumamoto, Japan) as described previously (31). Cell viability was calculated relative to the DMSO control. Cell cycle profile was analyzed by flow cytometry as described previously (32).

[5] = tested on: K562 cells; test: K562 cell growth inhibition; type: cell-based, human; details: no unit printed there
Protocol: K562 cells are a cell line of human erythroleukemia cells. The K562 cells were treated with P3-E5, P5-H6 or GGTI-298 (a known GGTI compound illustrated in FIG. 27) for 72 hours and then cell number was counted using cell counting kit-8 (Dojindo, Gaithersburg, Md.). Cell viability relative to the DMSO control and the known GGTI compound is plotted in FIG. 23.
as §4

[6] = tested on: MDA-MB-231; test: MDA-MB-231 cell growth inhibition; type: cell-based, human; details: no unit printed there
Protocol: (§5) In FIG. 9-24 in vitro IC50 values for the GGTase I activity are reported. In Tables 7-15 in cell GI50 values for the growth inhibition of a variety of cancer cell lines (e.g., Jurkat, K562, MDA-MB-231, BT474, MCF7, MiaPaCa2, Aspc-1, Panc-1, Capan-2, CFpac-1, and MCF10a) are reported.
as §4

[7] = tested on: BT474; test: BT474 cell growth inhibition; type: cell-based, human; details: no unit printed there
Protocol: as §5, §4

[8] = tested on: MCF7; test: MCF7 cell growth inhibition; type: cell-based, human; details: Homo sapiens, MCF7, Tables 8-15; no unit printed there
Protocol: as §5, §4

[9] = tested on: MCF10a; test: MCF10a cell growth inhibition; type: cell-based; details: Homo sapiens, MCF-10A, Tables 8-15; no unit printed there
Excerpt: as §5

[10] = tested on: MiaPaCa2; test: MiaPaCa2 cell growth inhibition; type: cell-based, human; details: no unit printed there
Protocol: as §5, §4

[11] = tested on: Aspc-1; test: Aspc-1 cell growth inhibition; type: cell-based, human; details: no unit printed there
Protocol: as §5, §4

[12] = tested on: Panc-1; test: Panc-1 cell growth inhibition; type: cell-based, human; details: no unit printed there
Protocol: as §5, §3, §4

[13] = tested on: Capan-2; test: Capan-2 cell growth inhibition; type: cell-based, human; details: no unit printed there
Protocol: as §5, §4

[14] = tested on: CFpac-1; test: CFpac-1 cell growth inhibition; type: cell-based, human; details: no unit printed there
Protocol: as §5, §4

[15] = Tables 8-15, no unit printed there (Table 7 head: μM unless otherwise specified), read-out: In vitro (GGTase I IC50)
[16] = Homo sapiens, Jurkat, Tables 8-15, no unit printed there, read-out: Jurkat GI50
[17] = Homo sapiens, K562, Tables 8-15
[18] = Homo sapiens, MDA-MB-231, Tables 8-15
[19] = Homo sapiens, BT-474, Tables 8-15

IC50 [1, 15]: 8.1 µM
GI50 [4, 16]: 6.58 µM
GI50 [5, 17]: 6.7 µM
GI50 [6, 18]: 6.68 µM
GI50 [7, 19]: 5.28 µM
Structure (SMILES): Cc1ccccc1S(=O)(=O)N1[C@@H](c2ccc(Cl)cc2)C(C(=O)N[C@@H](CC(C)C)C(N)=O)=C[C@H]1C(C)(C)C [drawing 156]

inhibition of FTase [2]: did not inhibit FTase
Structure (SMILES): Cc1ccccc1S(=O)(=O)N1[C@@H](c2ccc(Cl)cc2)C(C(=O)O)=C[C@H]1C(C)(C)C [compound 22]
inhibition of geranylgeranylation of Rheb-CSVL (slowly migrating unprocessed band) [3]: inhibit geranylgeranylation within the cell

GI50 [4, 16]: 4.89 µM
GI50 [5, 17]: 6.28 µM
GI50 [6, 18]: 8.25 µM
GI50 [7, 19]: 8.64 µM
GI50 [8]: 3.72 µM
GI50 ([10]; Homo sapiens, MIA PaCa-2, Tables 8-15): 7.48 µM
GI50 ([11]; Homo sapiens, ASPC1, Tables 8-15): 12.4 µM
GI50 ([12]; Homo sapiens, PANC-1, Tables 8-15): 13 µM
Structure (SMILES): Cc1ccccc1S(=O)(=O)N1[C@@H](c2ccc(Cl)cc2)C(C(=O)N[C@@H](Cc2ccccc2)C(N)=O)=C[C@H]1C(C)(C)C [P61A6]
GI50 [9]: 13.2 µM
GI50 ([13]; Homo sapiens, Capan-2, Tables 8-15): 11.5 µM
GI50 ([14]; Homo sapiens, CFPAC-1, Tables 8-15): 6.38 µM

Continued, compound first:

Structure (SMILES): Cn1cncc1CN1C[C@@H](Cc2ccccc2)N(S(=O)(=O)c2cccs2)Cc2cc(C#N)ccc21 [BMS225975, reference compound]
inhibition of GGTase I (FIG. 16 controls) [1]: does not inhibit GGTase I
inhibition of FTase activity (FIG. 16) ([2]; P3-D9, P3-E5: concentration increased to 100 (unit not given)): inhibits FTase

Structure (SMILES): Cc1ccccc1S(=O)(=O)N1C(c2ccc(Cl)cc2)CC=C(C(=O)O)[C@@H]1c1cccc(Cl)c1 (stereo partly drawn) [compound 23]
inhibition of FTase [2]: did not inhibit FTase
inhibition of geranylgeranylation of Rheb-CSVL (slowly migrating unprocessed band) [3]: inhibit geranylgeranylation within the cell

Structure (SMILES): Cc1ccccc1S(=O)(=O)N1[C@@H](c2ccc(Cl)c(Cl)c2)C(C(=O)N[C@@H](Cc2ccccc2)C(N)=O)=C[C@H]1C(C)(C)C [P61-B11]
IC50 ([1]; Tables 3, 5, 7, read-out: In vitro (enzyme assay) IC50, GGTase I): 7.6 µM
IC50 [1, 15]: 7.6 µM
GI50 ([4]; Tables 4, 6, 7, read-out: Jurkat cell GI50): 6.9 µM
GI50 ([4]; Tables 8-15, no unit printed there, read-out: Jurkat GI50): 6.9 µM
GI50 ([5]; Tables 8-15): 6.9 µM
GI50 ([6]; Tables 8-15): 5.54 µM
GI50 ([7]; Tables 8-15): 10.6 µM
GI50 [8]: 4.74 µM
GI50 [9]: 9.38 µM
GI50 ([10]; Tables 8-15): 7.49 µM
GI50 ([11]; Tables 8-15): 11.5 µM
GI50 ([12]; Tables 8-15): 7.52 µM
GI50 ([13]; Tables 8-15): 11.3 µM
GI50 ([14]; Tables 8-15): 2.03 µM
